Data set [1] in a line: microPET imaging of U87MG tumor xenografts in mice. In kind it is in vivo, nude mice. Particulars: nude, mouse, iv, total radioactivity.
Another data set deals with U87MG tumor xenografts. In words: microPET imaging of U87MG tumor xenografts in mice. Format: in vivo, nude mice.
The mark [2] stands for this setting: tumor versus muscle (background).

Here are results for one compound from PMC3447118 (Bioconjugate chemistry, 2012).

As a reminder, the tissue uptake is the percentage of the injected dose found per gram of tissue. As to `N=C(N)NCCC[C@@H]1NC(=O)[C@H](CCCCNC(=O)CC[C@H](NC(=O)COCCOCCOCCNC(=O)[C@@H]2CSC(c3nc4ccc(OCCF)cc4s3)=N2)C(=O)NCCCC[C@@H]2NC(=O)[C@@H](Cc3ccc(O)cc3)NC(=O)[C@H](CC(=O)O)NC(=O)CNC(=O)[C@H](CCCNC(=N)N)NC2=O)NC(=O)[C@@H](Cc2ccc(O)cc2)NC(=O)[C@H](CC(=O)O)NC(=O)CNC1=O` [[^18F]CBTRGD2], the tissue uptake at 0.5 h in data set [1] (kidney, 20 mg/kg) stood at 2.76 ± 0.85 %ID/g; in data set [1] (kidney), 5.46 ± 1.1 %ID/g; in data set [1] (liver, 20 mg/kg) it was 1.34 ± 0.06 %ID/g; in data set [1] (liver) it was 3.64 ± 0.76 %ID/g; in data set [1] (tumor, 20 mg/kg), 1.62 ± 0.1 %ID/g. The tissue uptake at 1 h in data set [1] (kidney, 20 mg/kg) was found to be 1.26 ± 0.23 %ID/g; in data set [1] (kidney) it was 3.99 ± 1.08 %ID/g; in data set [1] (liver, 20 mg/kg) it was 0.7 ± 0.08 %ID/g; in data set [1] (liver) it was 2.84 ± 0.76 %ID/g; in data set [1] (tumor, 20 mg/kg) it was 1.26 ± 0.13 %ID/g; in data set [1] (tumor), 4.25 ± 0.82 %ID/g. The tissue uptake at 2 h came out at 0.81 ± 0.04 %ID/g in data set [1] (kidney, 20 mg/kg); 2.26 ± 0.67 %ID/g in data set [1] (kidney); 0.32 ± 0.01 %ID/g in data set [1] (liver, 20 mg/kg); 2.15 ± 0.53 %ID/g in data set [1] (liver); 0.49 ± 0.02 %ID/g in data set [1] (tumor, 20 mg/kg); 3.35 ± 0.71 %ID/g in data set [1] (tumor). The tissue to tissue ratio at 0.5 h in data set [1] (setting [2]) was found to be 4.5 ± 0.83. In addition, the tissue to tissue ratio at 1 h in data set [1] (setting [2]) came to 5.4 ± 0.72. Moreover, in data set [1] (setting [2]), the tissue to tissue ratio at 2 h came out at 6.3 ± 1.1. Moreover, in the data set with U87MG tumor xenografts (30 min, comparison in the same mice (Fig S5, Table S1)), the “specific tumor uptake higher than that of [18F]FPPRGD2” value was found to be 50%. The “uptakes in organs such as liver and kidney compared with [18F]FPPRGD2” value in the data set with U87MG tumor xenografts (comparison in the same mice) is given as “higher”.
